Source: PubChem BioAssay AID1397 (The Scripps Research Institute Molecular Screening Center, 2008)
Calls of active or inactive are those of the source.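 Rule for the calls: active = potency EC50 for STAT1 activation at or below 10 micromolar; inactive = EC50 above 10 micromolar.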

Test system: NIH 3T3 STAT1-luciferase reporter, luminescence
Experiment: STAT1 signalling activators, dose response, cell-based, NIH 3T3, luciferase luminescence (AID 1397)
Conditions: not given

Row | SMILES | EC50 [µM]
1 | CC(=O)Nc1ccccc1C(=O)OCc1cccc(F)c1 | 3.02
2 | Nc1ccccc1C(=O)OCC(=O)N1CCc2ccccc21 | 2.22

Same assay, conditions: cells stimulated with IFN-gamma at EC80

Row | SMILES | EC50
3 | O=C(CCc1nnc(CCCc2ccccc2)o1)N1CCCCCC1 | 7.83 µM
4 | COc1ccc(-c2csc(N3C(=O)CNC3=S)n2)cc1 | 0.087 µM
5 | CN(C)c1ccc(C(=O)OCC(=O)c2cccs2)cc1 | > 0.687 µM (inactive)
6 | CN(C)c1nc(N)nc(CSc2nc3cc(Cl)ccc3o2)n1 | 18.6 µM (inactive)
7 | Cc1occc1C(=O)Nc1ccc2c(c1)CCC2 | 1.6 µM
8 | O=C(/C=C/c1ccc(F)cc1)Nc1nc2ccccc2[nH]1 | 0.92 µM
9 | O=C(NCCC1=CCCCC1)c1ccc(F)cc1 | > 0.687 µM (inactive)
10 | Cc1ccc(C(=O)Nc2nc3ccccc3s2)s1 | > 0.076 µM (inactive)
11 | CCOC(=O)/C(C#N)=C/c1cc(C)n(-c2ccccc2)c1C | 0.069 µM
12 | N#C/C(=C\c1ccc(N2CCOCC2)o1)c1nc2ccccc2[nH]1 | > 0.076 µM (inactive)
13 | COc1ccc2c(c1)oc(=O)c1cc(OC)ccc12 | 4.28 µM
14 | CCCCOC(=O)Nc1nc2ccccc2s1 | 0.741 µM
15 | CCOC(=O)c1cnc2c(-c3ccccc3)cnn2c1N | 0.229 µM
16 | COc1ccc(-c2nc3ccc([N+](=O)[O-])cc3[nH]2)cc1 | 0.126 µM
17 | COc1ccc(Nc2oc(-c3cccs3)nc2C#N)cc1 | 3.22 µM
18 | Nc1ccccc1Nc1cc(-c2ccccc2)[nH]n1 | 2.72 µM
19 | O=C(Nc1ccc2c(c1)OCCO2)c1ccc(Br)s1 | > 0.229 µM (inactive)
20 | C=CCn1c(C)cc(C(=O)CSc2nc3ccccc3o2)c1C | > 0.229 µM (inactive)
21 | O=C(/C(C=Nc1ccc(Br)cc1)=C(/O)c1ccco1)C(F)(F)F | > 0.685 µM (inactive)
22 | Cc1cccc(Nc2n[nH]c(C)c2[N+](=O)[O-])c1 | 1.24 µM
23 | CC(=O)c1cccc(NC(=S)NC(=O)c2cccc(C)c2)c1 | 1.89 µM
24 | Clc1ccc(-n2ncc3c(N4CCCC4)ncnc32)cc1 | > 55.7 µM (inactive)
25 | CC(=O)c1cccc(N/C=C\C(=O)c2ccc(C)cc2)c1 | > 0.687 µM (inactive)
26 | O=C(Nc1cccc(Cl)c1)c1ccc2c(=O)n3c(nc2c1)CCCCC3 | 0.811 µM
27 | O=C(/C=C/c1ccco1)Nc1ccccn1 | > 0.687 µM (inactive)
28 | COc1ccc2nc(Nc3ccc4c(c3)OCO4)sc2c1 | 3.07 µM

Row | SMILES | EC50
29 | c1cncc(-c2nc3cc4ccccc4cc3[nH]2)c1 | 0.331 µM
30 | CC(=O)COc1ccc2c(C)c(-c3ccccc3)c(=O)oc2c1 | 31.5 µM (inactive)
31 | O=C(/C=C/Nc1ccc(F)cc1)c1ccc(Br)cc1 | 0.431 µM
32 | Cc1nc(-c2ccc(NC(=O)c3ccccc3Br)cc2)cs1 | 2.6 µM
33 | CC(C)Oc1ccc2c(=O)c(-c3ccccc3)coc2c1 | 0.418 µM
34 | CC(=O)Nc1ccc(-c2csc(Nc3cccc(C)n3)n2)cc1 | 1.65 µM
35 | CCOCC(=O)Nc1nc2ccc(OCC)cc2s1 | > 55.7 µM (inactive)
36 | C=CCNc1nc(-c2cc3ccccc3o2)cs1 | > 0.764 µM (inactive)
37 | O=C(Nc1nccs1)c1ccc(-c2ccc([N+](=O)[O-])cc2)o1 | 1.22 µM
38 | O=C(NC(=S)Nc1ccccn1)c1ccc([N+](=O)[O-])cc1 | 0.525 µM
39 | Nc1nc2ccc(-c3nc4ccccc4o3)cc2s1 | 0.516 µM
40 | COc1ccc(NC(=S)Nc2ccc3nccnc3c2)cc1 | 13.3 µM (inactive)
41 | C=CCNC(=O)c1cc(-c2ccc(Br)cc2)on1 | 0.832 µM
42 | CC(C)=CC(=O)Nc1nc2ccc([N+](=O)[O-])cc2s1 | 3.13 µM
43 | Cc1ccc(C(=O)/C=C/Nc2cccc([N+](=O)[O-])c2)o1 | 1.38 µM
44 | Cc1ccc(/C=C/C(=O)N2CCCC(C)C2)cc1 (stereo unspecified) | > 0.687 µM (inactive)
45 | Cc1cc(C(=O)NCCC2=CCCCC2)c(C)o1 | > 0.229 µM (inactive)
46 | O=C(/C=C/Nc1ccccc1F)c1ccc(Br)cc1 | > 0.076 µM (inactive)
47 | Cc1ccc(-c2cc(N)n(-c3ccccc3)n2)cc1 | 3 µM
48 | COc1ccc(N/C=C\C(=O)c2ccc3c(c2)OCO3)cc1OC | 2.86 µM
49 | NC(=O)Cc1ccc2sc(-c3ccccc3)nc2c1 | 0.463 µM
50 | CCOC(=O)c1sc(NC(=O)c2sccc2C)cc1C | 0.233 µM
51 | O=[N+]([O-])c1ccccc1OCCCn1cnc2ccccc21 | 1.5 µM
52 | O=C(NC(=S)Nc1ccc(F)cc1)c1ccc2c(c1)OCCO2 | 1 µM
53 | Clc1ccc(-n2ncc3c(NCC4CCCO4)ncnc32)cc1 (stereo unspecified) | 0.409 µM
54 | O=C(OCc1csc(-c2ccccc2)n1)c1cccs1 | > 0.687 µM (inactive)

Row | SMILES | EC50
55 | c1csc(C2=NNC(=NC3CCCCC3)SC2)c1 | > 0.688 µM (inactive)
56 | COc1ccc(-c2cc3ncc(-c4ccccc4)c(N)n3n2)cc1 | 1.21 µM
57 | Cc1ccc(-c2cc3nc(C)cc(NCc4ccco4)n3n2)cc1 | 3.43 µM
58 | O=C(Cn1cnc2ccccc2c1=O)c1ccc(Cl)cc1 | 8.04 µM
59 | COc1ccc2nc(Nc3nc(C)c(C(C)=O)s3)sc2c1 | 2.12 µM
60 | COc1ccc(/C=C/C(=O)Nc2ccccc2)cc1OC | 5.13 µM
61 | COc1ccc2[nH]c3c(c2c1)CCn1c-3nc2ccccc2c1=O | > 0.076 µM (inactive)
62 | CCN(CC)c1ccc2cc(C(=O)Nc3ccccn3)c(=O)oc2c1 | > 0.076 µM (inactive)
63 | COc1cc(NC(=O)c2csc3c2CCCC3)ncn1 | 1.21 µM
64 | CCOc1ccc2nc(N3CCOCC3)nc(C)c2c1 | 2.3 µM
65 | C/C(=C\c1ccccc1)C(=O)Nc1nccs1 | 2.09 µM
66 | CCOC(=O)CSc1nc(-c2ccncc2)ccc1C#N | 1.2 µM
67 | CC(C)(C)N=C1NN=C(c2cc3ccccc3o2)CS1 | 0.825 µM
68 | CN1C(=O)/C(=C/C=C2\SCCN2C)SC1=S | 0.42 µM
69 | Cc1ccc(NC(=O)Nc2ccc3oc(C)nc3c2)cc1 | 1.65 µM
70 | CCCOC(=O)c1ccc(-c2ccc(C=O)o2)cc1 | 0.436 µM
71 | COc1cccc(N/C=C/C(=O)c2ccc(Cl)cc2)c1 | 0.114 µM
72 | Cc1ccc(C(=O)N2CCc3ccccc32)o1 | > 0.687 µM (inactive)
73 | Cc1ncsc1C(=O)Nc1nc2c(s1)CCCC2 | 2.68 µM
74 | O=C(O)c1ccccc1C(=O)Nc1ccc(-c2csc(-c3ccccc3)n2)cc1 | 3.88 µM
75 | Fc1ccccc1CSc1nnc(-c2cccnc2)o1 | 4.52 µM
76 | CCc1c(C)[nH]c(C(=O)OCc2ccccc2)c1C | 6.91 µM
77 | CCNc1nc(-c2cc3ccccc3o2)cs1 | 0.179 µM
78 | O=C(/C=C/c1ccccc1)Nc1ccc(Cl)cn1 | 0.669 µM
79 | Fc1ccc2nc(Nc3nc4cc5c(cc4s3)OCCO5)sc2c1 | 1.29 µM
80 | Nc1ncc(-c2cc3ccccc3oc2=O)s1 | > 0.687 µM (inactive)

Row | SMILES | EC50
81 | CN(C)c1ccnc2sc(C(=O)c3ccccc3)c(N)c12 | 1.97 µM
82 | C=CCNC(=S)NNC(=O)COc1ccc2cc(Br)ccc2c1 | 3.04 µM
83 | Cc1nc2ccc(-c3nc4ccccc4o3)cc2[nH]1 | 0.356 µM
84 | CCc1ccc(NC(=O)N2CCC(c3ccccc3)C2)cc1 (stereo unspecified) | 1.37 µM
85 | Cc1ccc2nc(NC(=O)CCn3cccc3)sc2c1 | 6.94 µM
86 | CC(=O)NC(=S)Nc1sc2c(c1C#N)CCCCC2 | > 0.076 µM (inactive)
87 | O=C(Nc1ccc(-c2nc3cccnc3s2)cc1)c1ccco1 | 0.341 µM
88 | O=C(/C=C/c1cccc(F)c1)N1CCc2ccccc21 | 0.21 µM
89 | Cc1nc(-c2ccc(NC(=O)c3ccccc3C)cc2)cs1 | 1.84 µM
90 | O=C(c1ccccc1)c1ccc(N2CCCC2)cc1 | 1.97 µM
91 | c1ccc(CNc2ccc3ccccc3n2)nc1 | > 0.687 µM (inactive)
92 | Cc1nc2ccc3nc(NC(=O)c4ccco4)sc3c2s1 | 11 µM (inactive)
93 | COc1ccc(-c2cc(C)nc3c(-c4ccccc4)cnn23)cc1 | > 0.076 µM (inactive)
94 | Nc1ccc2nn(-c3ccccc3)nc2c1 | 1.35 µM
95 | CCOC(=O)c1ccc2nc(NC(C)=O)sc2c1 | 2.54 µM
96 | CCc1ccc(Nc2ncc3c(n2)CC(C)CC3=O)cc1 (stereo unspecified) | 0.751 µM
97 | Cc1ccc(C(=O)Nc2nc3c(s2)CCCC3)o1 | > 0.229 µM (inactive)
98 | CCCCCNc1nc(-c2ccccc2)cs1 | 0.851 µM
99 | Cc1ccc(-c2cnc(-c3ccncc3)o2)cc1 | 3.3 µM
100 | COc1cccc(NC(=O)Nc2ccc(C(C)(C)C)cc2)c1 | 2.81 µM
101 | CCC(C)NC(=O)c1cc(-c2ccc(OC)cc2)on1 (stereo unspecified) | 1.3 µM
102 | CC(=O)Nc1cccc(-c2cnc3ccccc3n2)c1 | 3.86 µM
103 | O=C(/C(C=Nc1ccc(F)cc1)=C(/O)c1ccco1)C(F)(F)F | > 0.687 µM (inactive)
104 | Cc1ccc(/C=C/C(=O)Nc2ccccc2C(N)=O)cc1 | > 0.687 µM (inactive)
105 | Nc1ccc2oc(-c3ccccc3Cl)nc2c1 | > 0.229 µM (inactive)
106 | Cc1nnc(SCC(=O)Nc2ccc(-c3nc4ccccc4s3)cc2)s1 | 0.093 µM
